Laboratory results published in article PMC12454493, “Insight on novel sulfamoylphenyl pyrazole derivatives as anticancer carbonic anhydrase inhibitors” (Molecular Diversity, 2024).
Where “and” joins values, the source holds several entries; their conditions need not be identical. Equal values may be shown once.

Assays:
HL-60(TB) = experiment: NCI-60 one-dose SRB screen (Leukemia); assay type: cell-based; conditions: Homo sapiens, single dose 10 µM, 48 h, read-out: Growth inhibition percent (GI %)
MOLT-4 = experiment: NCI-60 one-dose SRB screen (Leukemia); assay type: cell-based; conditions: Homo sapiens, single dose 10 µM, 48 h, read-out: Growth inhibition percent (GI %)
RPMI-8226 = experiment: NCI-60 one-dose SRB screen (Leukemia); assay type: cell-based; conditions: Homo sapiens, single dose 10 µM, 48 h, read-out: Growth inhibition percent (GI %)
K-562 = experiment: NCI-60 one-dose SRB screen (Leukemia); assay type: cell-based; conditions: Homo sapiens, K562, single dose 10 µM, 48 h, read-out: Growth inhibition percent (GI %)
CCRF-CEM = experiment: NCI-60 one-dose SRB screen (Leukemia); assay type: cell-based; conditions: Homo sapiens, single dose 10 µM, 48 h, read-out: Growth inhibition percent (GI %)
SR = experiment: NCI-60 one-dose SRB screen (Leukemia); assay type: cell-based; conditions: Homo sapiens, single dose 10 µM, 48 h, read-out: Growth inhibition percent (GI %)
OVCAR-4 = experiment: NCI-60 one-dose SRB screen (Ovarian cancer); assay type: cell-based; conditions: Homo sapiens, single dose 10 µM, 48 h, read-out: Growth inhibition percent (GI %)
IGROV1 = experiment: NCI-60 one-dose SRB screen (Ovarian cancer); assay type: cell-based; conditions: Homo sapiens, IGROV-1, single dose 10 µM, 48 h, read-out: Growth inhibition percent (GI %)
NCI/ADR-RES = experiment: NCI-60 one-dose SRB screen (Ovarian cancer); assay type: cell-based; conditions: Homo sapiens, single dose 10 µM, 48 h, read-out: Growth inhibition percent (GI %)
SK-OV-3 = experiment: NCI-60 one-dose SRB screen (Ovarian cancer); assay type: cell-based; conditions: Homo sapiens, single dose 10 µM, 48 h, read-out: Growth inhibition percent (GI %)
OVCAR-5 = experiment: NCI-60 one-dose SRB screen (Ovarian cancer); assay type: cell-based; conditions: Homo sapiens, single dose 10 µM, 48 h, read-out: Growth inhibition percent (GI %)
OVCAR-8 = experiment: NCI-60 one-dose SRB screen (Ovarian cancer); assay type: cell-based; conditions: Homo sapiens, single dose 10 µM, 48 h, read-out: Growth inhibition percent (GI %)
OVCAR-3 = experiment: NCI-60 one-dose SRB screen (Ovarian cancer); assay type: cell-based; conditions: Homo sapiens, single dose 10 µM, 48 h, read-out: Growth inhibition percent (GI %)
UACC-62 = experiment: NCI-60 one-dose SRB screen (Melanoma); assay type: cell-based; conditions: Homo sapiens, single dose 10 µM, 48 h, read-out: Growth inhibition percent (GI %)
LOX IMVI = experiment: NCI-60 one-dose SRB screen (Melanoma); assay type: cell-based; conditions: Homo sapiens, single dose 10 µM, 48 h, read-out: Growth inhibition percent (GI %)
MDA-MB-435 = experiment: NCI-60 one-dose SRB screen (Melanoma); assay type: cell-based; conditions: Homo sapiens, single dose 10 µM, 48 h, read-out: Growth inhibition percent (GI %)
SK-MEL-2 = experiment: NCI-60 one-dose SRB screen (Melanoma); assay type: cell-based; conditions: Homo sapiens, single dose 10 µM, 48 h, read-out: Growth inhibition percent (GI %)
MALME-3M = experiment: NCI-60 one-dose SRB screen (Melanoma); assay type: cell-based; conditions: Homo sapiens, single dose 10 µM, 48 h, read-out: Growth inhibition percent (GI %)
SK-MEL-5 = experiment: NCI-60 one-dose SRB screen (Melanoma); assay type: cell-based; conditions: Homo sapiens, single dose 10 µM, 48 h, read-out: Growth inhibition percent (GI %)
UACC-257 = experiment: NCI-60 one-dose SRB screen (Melanoma); assay type: cell-based; conditions: Homo sapiens, single dose 10 µM, 48 h, read-out: Growth inhibition percent (GI %)
M14 = experiment: NCI-60 one-dose SRB screen (Melanoma); assay type: cell-based; conditions: Homo sapiens, single dose 10 µM, 48 h, read-out: Growth inhibition percent (GI %)
SK-MEL-28 = experiment: NCI-60 one-dose SRB screen (Melanoma); assay type: cell-based; conditions: Homo sapiens, single dose 10 µM, 48 h, read-out: Growth inhibition percent (GI %)
HCC-2998 = experiment: NCI-60 one-dose SRB screen (Colon Cancer); assay type: cell-based; conditions: Homo sapiens, single dose 10 µM, 48 h, read-out: Growth inhibition percent (GI %)
SW-620 = experiment: NCI-60 one-dose SRB screen (Colon Cancer); assay type: cell-based; conditions: Homo sapiens, single dose 10 µM, 48 h, read-out: Growth inhibition percent (GI %)
COLO 205 = experiment: NCI-60 one-dose SRB screen (Colon Cancer); assay type: cell-based; conditions: Homo sapiens, single dose 10 µM, 48 h, read-out: Growth inhibition percent (GI %)
HCT-15 = experiment: NCI-60 one-dose SRB screen (Colon Cancer); assay type: cell-based; conditions: Homo sapiens, single dose 10 µM, 48 h, read-out: Growth inhibition percent (GI %)
HT29 = experiment: NCI-60 one-dose SRB screen (Colon Cancer); assay type: cell-based; conditions: Homo sapiens, HT-29, single dose 10 µM, 48 h, read-out: Growth inhibition percent (GI %)
HCT-116 = experiment: NCI-60 one-dose SRB screen (Colon Cancer); assay type: cell-based; conditions: Homo sapiens, single dose 10 µM, 48 h, read-out: Growth inhibition percent (GI %)
KM12 = experiment: NCI-60 one-dose SRB screen (Colon Cancer); assay type: cell-based; conditions: Homo sapiens, single dose 10 µM, 48 h, read-out: Growth inhibition percent (GI %)
NCI-H522 = experiment: NCI-60 one-dose SRB screen (Non-Small Cell Lung Cancer); assay type: cell-based; conditions: Homo sapiens, single dose 10 µM, 48 h, read-out: Growth inhibition percent (GI %)
NCI-H23 = experiment: as above; assay type: cell-based; conditions: Homo sapiens, single dose 10 µM, 48 h, read-out: Growth inhibition percent (GI %)
NCI-H322M = experiment: as above; assay type: cell-based; conditions: Homo sapiens, single dose 10 µM, 48 h, read-out: Growth inhibition percent (GI %)
NCI-H226 = experiment: as above; assay type: cell-based; conditions: Homo sapiens, single dose 10 µM, 48 h, read-out: Growth inhibition percent (GI %)
NCI-H460 = experiment: as above; assay type: cell-based; conditions: Homo sapiens, single dose 10 µM, 48 h, read-out: Growth inhibition percent (GI %)
A549/ATCC = experiment: as above; assay type: cell-based; conditions: Homo sapiens, single dose 10 µM, 48 h, read-out: Growth inhibition percent (GI %)
HOP-62 = experiment: as above; assay type: cell-based; conditions: Homo sapiens, single dose 10 µM, 48 h, read-out: Growth inhibition percent (GI %)
EKVX = experiment: as above; assay type: cell-based; conditions: Homo sapiens, single dose 10 µM, 48 h, read-out: Growth inhibition percent (GI %)
hCA IX = hCA IX (Homo sapiens, UniProt Q16790); experiment: CA inhibitory activity, spectrophotometric p-NPA assay; assay type: biochemical; conditions: for IC50: p-NPA substrate, pH 7.5, 25 °C, triplicate, read-out: IC50 (µM) ± SD hCA IX
hCA XII = hCA XII (Homo sapiens, UniProt O43570); experiment: as above; assay type: biochemical; conditions: for IC50: p-NPA substrate, pH 7.5, 25 °C, triplicate, read-out: IC50 (µM) ± SD hCA XII
Procedure: The software used to calculate CA IC50 along with statistical analysis of the results is GraphPad Prism 9.00. Results were estimated by using one-way ANOVA and the Bonferroni’s multiple comparisons posthoc test was performed (P < 0.05) [46]
Carbonic anhydrase inhibitory activity:
The spectrophotometric assay was conducted in HEPES-Tris buffer, NaCl of pH 7.5 (20mM) at 25◦C. Each inhibitory well-consisted of 50 μL of assay buffer solution, 20 μL of hCA enzyme solution (20 ng/μL in Assay Buffer), and 50 μL of test compound in HPLC grade DMSO (maintain 10% of the final concentration). The mixture solution was
Substrate p-nitrophenyl acetate (p-NPA) (0.7mM) was prepared in HPLC grade methanol and the reaction was started by adding 20 μL to a well in a 96-well-plate. The amount of product formed was measured for 30 min continuously at 1 min intervals at 400 nm in a 96-well-plate using xMARK microplate spectrophotometer, Bio-Rad (USA). The activity of the controlled compound was taken as 100%. All experiments were carried out in triplicates of each used concentration, and results are represented as a

SF-295 = experiment: NCI-60 one-dose SRB screen (CNS Cancer); assay type: cell-based; conditions: Homo sapiens, single dose 10 µM, 48 h, read-out: Growth inhibition percent (GI %)
SNB-75 = experiment: NCI-60 one-dose SRB screen (CNS Cancer); assay type: cell-based; conditions: Homo sapiens, single dose 10 µM, 48 h, read-out: Growth inhibition percent (GI %)
SNB-19 = experiment: NCI-60 one-dose SRB screen (CNS Cancer); assay type: cell-based; conditions: Homo sapiens, single dose 10 µM, 48 h, read-out: Growth inhibition percent (GI %)
U251 = experiment: NCI-60 one-dose SRB screen (CNS Cancer); assay type: cell-based; conditions: Homo sapiens, U-251, single dose 10 µM, 48 h, read-out: Growth inhibition percent (GI %)
SF-268 = experiment: NCI-60 one-dose SRB screen (CNS Cancer); assay type: cell-based; conditions: Homo sapiens, single dose 10 µM, 48 h, read-out: Growth inhibition percent (GI %)
SF-539 = experiment: NCI-60 one-dose SRB screen (CNS Cancer); assay type: cell-based; conditions: Homo sapiens, single dose 10 µM, 48 h, read-out: Growth inhibition percent (GI %)

Sequence of hCA XII (O43570 25-354): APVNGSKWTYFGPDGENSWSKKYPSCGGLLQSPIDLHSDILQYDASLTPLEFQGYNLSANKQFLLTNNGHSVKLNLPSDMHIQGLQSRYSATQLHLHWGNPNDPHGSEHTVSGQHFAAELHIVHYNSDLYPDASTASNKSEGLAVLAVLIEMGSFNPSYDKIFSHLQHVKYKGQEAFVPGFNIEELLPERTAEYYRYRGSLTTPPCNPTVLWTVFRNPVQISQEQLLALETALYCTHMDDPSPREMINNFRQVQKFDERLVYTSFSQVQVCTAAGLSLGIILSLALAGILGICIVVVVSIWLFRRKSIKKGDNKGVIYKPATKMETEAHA

## CCOC(=O)c1ccc(NC(=O)COC(=O)c2cn(-c3ccc(S(N)(=O)=O)cc3)nc2-c2ccc(S(C)(=O)=O)cc2)cc1 [Compound 5e, 2-[(4-(Ethoxycarbonyl)phenyl)amino]-2-oxoethyl 3-(4-(methylsulfonyl)phenyl)-1-(4-sulfamoylphenyl)-1H-pyrazole-4-carboxylate]
HL-60(TB)
  inhibition at 10 µM: 6.26%
MOLT-4
  inhibition at 10 µM: < 5%
RPMI-8226
  inhibition at 10 µM: 6.03%
K-562
  inhibition at 10 µM: 9.58%
CCRF-CEM
  inhibition at 10 µM: 9.47%
SR
  inhibition at 10 µM: 22.1%
OVCAR-4
  inhibition at 10 µM: 12.3%
IGROV1
  inhibition at 10 µM: < 5%
NCI/ADR-RES
  inhibition at 10 µM: < 5%
SK-OV-3
  inhibition at 10 µM: < 5%
OVCAR-5
  inhibition at 10 µM: 7.15%
OVCAR-8
  inhibition at 10 µM: < 5%
OVCAR-3
  inhibition at 10 µM: < 5%
UACC-62
  inhibition at 10 µM: 15.8%
LOX IMVI
  inhibition at 10 µM: 11.6%
MDA-MB-435
  inhibition at 10 µM: < 5%
SK-MEL-2
  inhibition at 10 µM: < 5%
MALME-3M
  inhibition at 10 µM: < 5%
SK-MEL-5
  inhibition at 10 µM: < 5%
UACC-257
  inhibition at 10 µM: < 5%
M14
  inhibition at 10 µM: < 5%
SK-MEL-28
  inhibition at 10 µM: < 5%
HCC-2998
  inhibition at 10 µM: < 5%
SW-620
  inhibition at 10 µM: < 5%
COLO 205
  inhibition at 10 µM: < 5%
HCT-15
  inhibition at 10 µM: < 5%
HT29
  inhibition at 10 µM: < 5%
HCT-116
  inhibition at 10 µM: < 5%
KM12
  inhibition at 10 µM: < 5%
NCI-H522
  inhibition at 10 µM: 13.5%
NCI-H23
  inhibition at 10 µM: 8.79%
NCI-H322M
  inhibition at 10 µM: < 5%
NCI-H226
  inhibition at 10 µM: < 5%
NCI-H460
  inhibition at 10 µM: < 5%
A549/ATCC
  inhibition at 10 µM: < 5%
HOP-62
  inhibition at 10 µM: < 5%
EKVX
  inhibition at 10 µM: < 5%
hCA IX
  Ki: 40 nM
  IC50: 0.04 ± 0.002 µM
hCA XII
  IC50: 0.16 µM and 0.167 µM
other
  melting point: 127 to 130 °C
SF-295
  inhibition at 10 µM: < 5%
SNB-75
  inhibition at 10 µM: 19.6%
SNB-19
  inhibition at 10 µM: 8.29%
U251
  inhibition at 10 µM: 5.78%
SF-268
  inhibition at 10 µM: 5.8%
SF-539
  inhibition at 10 µM: 11.8%

## COc1ccc(-c2nn(-c3ccc(S(N)(=O)=O)cc3)cc2C(=O)OCC(=O)Nc2nnc(S(N)(=O)=O)s2)cc1 [Compound 6c, 2-Oxo-2-[(5-sulfamoyl-1,3,4-thiadiazol-2-yl)amino] ethyl 3-(4-methoxyphenyl)-1-(4-sulfamoylphenyl)-1H-pyrazole-4-carboxylate]
HL-60(TB)
  inhibition at 10 µM: < 5%
MOLT-4
  inhibition at 10 µM: < 5%
RPMI-8226
  inhibition at 10 µM: < 5%
K-562
  inhibition at 10 µM: < 5%
CCRF-CEM
  inhibition at 10 µM: < 5%
SR
  inhibition at 10 µM: < 5%
OVCAR-4
  inhibition at 10 µM: < 5%
IGROV1
  inhibition at 10 µM: < 5%
NCI/ADR-RES
  inhibition at 10 µM: < 5%
SK-OV-3
  inhibition at 10 µM: < 5%
OVCAR-5
  inhibition at 10 µM: < 5%
OVCAR-8
  inhibition at 10 µM: < 5%
OVCAR-3
  inhibition at 10 µM: < 5%
UACC-62
  inhibition at 10 µM: 9.09%
LOX IMVI
  inhibition at 10 µM: 8.56%
MDA-MB-435
  inhibition at 10 µM: < 5%
SK-MEL-2
  inhibition at 10 µM: < 5%
MALME-3M
  inhibition at 10 µM: 5.67%
SK-MEL-5
  inhibition at 10 µM: < 5%
UACC-257
  inhibition at 10 µM: < 5%
M14
  inhibition at 10 µM: < 5%
SK-MEL-28
  inhibition at 10 µM: < 5%
HCC-2998
  inhibition at 10 µM: < 5%
SW-620
  inhibition at 10 µM: < 5%
COLO 205
  inhibition at 10 µM: < 5%
HCT-15
  inhibition at 10 µM: < 5%
HT29
  inhibition at 10 µM: < 5%
HCT-116
  inhibition at 10 µM: < 5%
KM12
  inhibition at 10 µM: < 5%
NCI-H522
  inhibition at 10 µM: 5.91%
NCI-H23
  inhibition at 10 µM: < 5%
NCI-H322M
  inhibition at 10 µM: < 5%
NCI-H226
  inhibition at 10 µM: 8.69%
NCI-H460
  inhibition at 10 µM: < 5%
A549/ATCC
  inhibition at 10 µM: < 5%
HOP-62
  inhibition at 10 µM: < 5%
EKVX
  inhibition at 10 µM: 11.2%
hCA IX
  Ki: 73 nM
  IC50: 0.07 µM and 0.073 µM
hCA XII
  Ki: 95 nM
  IC50: 0.09 µM and 0.095 µM
other
  melting point: 240 to 241 °C
SF-295
  inhibition at 10 µM: < 5%
SNB-75
  inhibition at 10 µM: 13.4%
SNB-19
  inhibition at 10 µM: < 5%
U251
  inhibition at 10 µM: < 5%
SF-268
  inhibition at 10 µM: < 5%
SF-539
  inhibition at 10 µM: < 5%
